Measured values from PubChem BioAssay (NCI).
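Cells were grown in 96-well plates and exposed to each compound for 48 hours at five concentrations; endpoints were interpolated linearly between bracketing concentrations, or set to the highest concentration if not reached. TGI is the concentration that stops growth completely.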

What was measured:
Assay in all cases: DTP human tumour cell line panel, 48 h
[1] = test system: OVCAR-5 ovarian
[2] = test system: SK-OV-3 ovarian
[3] = test system: COLO 205 colon
[4] = test system: HT29 colon
[5] = test system: HOP-92 NSCLC
[6] = test system: HL-60(TB) leukemia
[7] = test system: SNB-75 CNS
[8] = test system: NCI-H226 lung
[9] = test system: MOLT-4 leukemia
[10] = test system: SN12C renal
[11] = test system: NCI/ADR-RES ovarian
[12] = test system: SW-620 colon
[13] = test system: HCC-2998 colon
[14] = test system: SK-MEL-28 melanoma
[15] = test system: MALME-3M melanoma
[16] = test system: SR leukemia
[17] = test system: HCT-116 colon
[18] = test system: MDA-MB-231 breast
[19] = test system: MCF7 breast
[20] = test system: UACC-62 melanoma
[21] = test system: HCT-15 colon
[22] = test system: NCI-H23 lung
[23] = test system: IGROV1 ovarian
[24] = test system: HOP-62 NSCLC
[25] = test system: CAKI-1 renal
[26] = test system: M14 melanoma
[27] = test system: HS 578T breast
[28] = test system: RXF 393 renal
[29] = test system: LOX IMVI melanoma
[30] = test system: SNB-19 CNS
[31] = test system: PC-3 prostate
[32] = test system: K-562 leukemia
[33] = test system: A498 renal
[34] = test system: UO-31 renal
[35] = test system: SF-539 CNS
[36] = test system: ACHN renal
[37] = test system: 786-0 renal
[38] = test system: EKVX NSCLC
[39] = test system: SF-295 CNS
[40] = test system: A549 NSCLC
[41] = test system: T-47D breast
[42] = test system: OVCAR-8 ovarian
[43] = test system: RPMI-8226 leukemia
[44] = test system: CCRF-CEM leukemia
[45] = test system: U251 CNS
[46] = test system: OVCAR-3 ovarian
[47] = test system: SK-MEL-5 melanoma
[48] = test system: TK-10 renal
[49] = test system: NCI-H460 lung
[50] = test system: DU-145 prostate
[51] = test system: BT-549 breast
[52] = test system: SF-268 CNS
[53] = test system: UACC-257 melanoma
[54] = test system: SK-MEL-2 melanoma
[55] = test system: MDA-MB-435
[56] = test system: OVCAR-4 ovarian
[57] = test system: MDA-N
[58] = test system: KM12 colon
[59] = test system: NCI-H522 lung

CC1(C)C2CC1C(/C=N\OCC(=O)O)=CC2=O (stereo unspecified) showed a TGI [1] of over 100 µM, a TGI [2] of over 100 µM and a TGI [3] of over 100 µM. It also gave a TGI [4] of over 100 µM, a TGI [5] of over 100 µM and a TGI [6] of over 100 µM. It also gave a TGI [7] of 97.9 µM, a TGI [8] of over 100 µM and a TGI [9] of over 100 µM. For the same molecule, the TGI [10] was over 100 µM, the TGI [11] was over 100 µM and the TGI [12] was over 100 µM. The TGI [13] was over 100 µM, the TGI [14] was over 100 µM and the TGI [15] was over 100 µM. For the same molecule, the TGI [16] was over 100 µM, the TGI [17] was over 100 µM and the TGI [18] was over 100 µM. For the same molecule, the TGI [19] was over 100 µM, the TGI [20] was over 100 µM and the TGI [21] was over 100 µM. For the same molecule, the TGI [22] was over 100 µM, the TGI [23] was over 100 µM and the TGI [24] was over 100 µM. It also gave a TGI [25] of over 100 µM, a TGI [26] of over 100 µM and a TGI [27] of over 100 µM. For the same molecule, the TGI [28] was over 100 µM, the TGI [29] was over 100 µM and the TGI [30] was over 100 µM. For the same molecule, the TGI [31] was over 100 µM, the TGI [32] was over 100 µM and the TGI [33] was over 100 µM. The TGI [34] was over 100 µM, the TGI [35] was over 100 µM and the TGI [36] was over 100 µM. For the same molecule, the TGI [37] was over 100 µM, the TGI [38] was over 100 µM and the TGI [39] was over 100 µM. For the same molecule, the TGI [40] was over 100 µM, the TGI [41] was over 100 µM and the TGI [42] was over 100 µM. It also gave a TGI [43] of over 100 µM, a TGI [44] of over 100 µM and a TGI [45] of over 100 µM. For the same molecule, the TGI [46] was over 100 µM, the TGI [47] was over 100 µM and the TGI [48] was over 100 µM. It also gave a TGI [49] of over 100 µM, a TGI [50] of over 100 µM and a TGI [51] of over 100 µM. The TGI [52] was over 100 µM, the TGI [53] was over 100 µM and the TGI [54] was over 100 µM. The TGI [55] was over 100 µM, the TGI [56] was over 100 µM and the TGI [57] was over 100 µM. For the same molecule, the TGI [58] was over 100 µM.

In the case of CN(C)c1ccc(/C=C(\NC(=O)c2ccccc2)c2nc3ccccc3c(=O)o2)cc1, the TGI [1] was over 100 µM, the TGI [2] was over 100 µM and the TGI [3] was over 100 µM. It also gave a TGI [4] of over 100 µM, a TGI [5] of over 100 µM and a TGI [6] of over 100 µM. The TGI [7] was over 100 µM, the TGI [8] was over 100 µM and the TGI [9] was over 100 µM. It also gave a TGI [10] of over 100 µM, a TGI [11] of over 100 µM and a TGI [12] of over 100 µM. For the same molecule, the TGI [13] was over 100 µM, the TGI [14] was over 100 µM and the TGI [15] was over 100 µM. The TGI [17] was over 100 µM, the TGI [18] was over 100 µM and the TGI [19] was over 100 µM. It also gave a TGI [20] of over 100 µM, a TGI [21] of over 100 µM and a TGI [22] of over 100 µM. For the same molecule, the TGI [23] was over 100 µM, the TGI [24] was over 100 µM and the TGI [25] was over 100 µM. For the same molecule, the TGI [26] was over 100 µM, the TGI [27] was over 100 µM and the TGI [28] was over 100 µM. It also gave a TGI [29] of over 100 µM, a TGI [30] of over 100 µM and a TGI [31] of over 100 µM. It also gave a TGI [32] of over 100 µM, a TGI [33] of over 100 µM and a TGI [34] of over 100 µM. The TGI [35] was over 100 µM, the TGI [36] was over 100 µM and the TGI [37] was over 100 µM. It also gave a TGI [38] of over 100 µM, a TGI [39] of over 100 µM and a TGI [40] of over 100 µM. For the same molecule, the TGI [41] was over 100 µM, the TGI [42] was over 100 µM and the TGI [43] was over 100 µM. It also gave a TGI [44] of over 100 µM, a TGI [45] of over 100 µM and a TGI [46] of over 100 µM. It also gave a TGI [47] of over 100 µM, a TGI [59] of over 100 µM and a TGI [48] of over 100 µM. The TGI [49] was over 100 µM, the TGI [50] was over 100 µM and the TGI [51] was over 100 µM. It also gave a TGI [52] of over 100 µM, a TGI [53] of over 100 µM and a TGI [54] of over 100 µM. For the same molecule, the TGI [55] was over 100 µM, the TGI [56] was over 100 µM and the TGI [57] was over 100 µM. The TGI [58] was over 100 µM.
